Source: ChEMBL document CHEMBL1201862, “PubChem BioAssay data set” (2004)
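96-well plates; 48 h exposure; 5 concentrations. Endpoints by linear interpolation between flanking doses. Not reached: highest tested concentration assigned. Here, GI50 denotes the concentration required for 50% inhibition of growth.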 Activity calls are given as the source filed them. Rule as the data show it: active = GI50 up to about 1.1 µM and inactive = higher.

How the values were obtained:
Test in all cases: growth of human tumour cells (NCI), 48 h
M14 = tested on: M14
KM12 = tested on: KM12
MCF7 = tested on: MCF7
SK-MEL-5 = tested on: SK-MEL-5
OVCAR-8 = tested on: OVCAR-8
NCI-H226 = tested on: NCI-H226
SNB-75 = tested on: SNB-75
RXF 393 = tested on: RXF 393
COLO 205 = tested on: COLO 205
OVCAR-5 = tested on: OVCAR-5
UACC-257 = tested on: UACC-257
MDA-MB-435 = tested on: MDA-MB-435
SK-MEL-2 = tested on: SK-MEL-2
RPMI-8226 = tested on: RPMI-8226
OVCAR-4 = tested on: OVCAR-4
PC-3 = tested on: PC-3
UO-31 = tested on: UO-31
HOP-62 = tested on: HOP-62
SK-MEL-28 = tested on: SK-MEL-28
786-0 = tested on: 786-0
DU-145 = tested on: DU-145
A549 = tested on: A549
MOLT-4 = tested on: MOLT-4
MDA-MB-231 = tested on: MDA-MB-231
NCI-H522 = tested on: NCI-H522
K562 = tested on: K562
CAKI-1 = tested on: CAKI-1
TK-10 = tested on: TK-10
CCRF-CEM = tested on: CCRF-CEM
NCI/ADR-RES = tested on: NCI/ADR-RES
SNB-19 = tested on: SNB-19
SF-539 = tested on: SF-539
T47D = tested on: T47D
NCI-H23 = tested on: NCI-H23
BT-549 = tested on: BT-549
EKVX = tested on: EKVX
SW-620 = tested on: SW-620
IGROV-1 = tested on: IGROV-1
U-251 = tested on: U-251
SF-268 = tested on: SF-268
ACHN = tested on: ACHN
A498 = tested on: A498
MDA-N = tested on: MDA-N
HCC 2998 = tested on: HCC 2998
SK-OV-3 = tested on: SK-OV-3
SN12C = tested on: SN12C
HT-29 = tested on: HT-29
HL-60 = tested on: HL-60
OVCAR-3 = tested on: OVCAR-3
HCT-116 = tested on: HCT-116
UACC-62 = tested on: UACC-62
NCI-H460 = tested on: NCI-H460
Malme-3M = tested on: Malme-3M
HCT-15 = tested on: HCT-15
Hs-578T = tested on: Hs-578T
SF-295 = tested on: SF-295
LOX IMVI = tested on: LOX IMVI
HOP-92 = tested on: HOP-92
SR = tested on: SR

Compound: Cc1cc2c(cc1Cl)SC(NNc1ccc([N+](=O)[O-])cc1)=NS2(=O)=O
- GI50 (M14): > 10 µM (inactive)
- GI50 (KM12): > 10 µM (inactive)
- GI50 (MCF7): > 10 µM (inactive)
- GI50 (SK-MEL-5): > 10 µM (inactive)
- GI50 (OVCAR-8): > 10 µM (inactive)
- GI50 (NCI-H226): > 10 µM (inactive)
- GI50 (SNB-75): > 10 µM (inactive)
- GI50 (RXF 393): > 10 µM (inactive)
- GI50 (COLO 205): > 10 µM (inactive)
- GI50 (OVCAR-5): > 10 µM (inactive)
- GI50 (UACC-257): > 10 µM (inactive)
- GI50 (MDA-MB-435): > 10 µM (inactive)
- GI50 (SK-MEL-2): > 10 µM (inactive)
- GI50 (RPMI-8226): > 10 µM (inactive)
- GI50 (OVCAR-4): > 10 µM (inactive)
- GI50 (PC-3): > 10 µM (inactive)
- GI50 (UO-31): > 10 µM (inactive)
- GI50 (HOP-62): > 10 µM (inactive)
- GI50 (SK-MEL-28): > 10 µM (inactive)
- GI50 (786-0): > 10 µM (inactive)
- GI50 (DU-145): > 10 µM (inactive)
- GI50 (A549): > 10 µM (inactive)
- GI50 (MOLT-4): > 10 µM (inactive)
- GI50 (MDA-MB-231): > 10 µM (inactive)
- GI50 (NCI-H522): > 10 µM (inactive)
- GI50 (K562): > 10 µM (inactive)
- GI50 (CAKI-1): > 10 µM (inactive)
- GI50 (TK-10): > 10 µM (inactive)
- GI50 (CCRF-CEM): > 10 µM (inactive)
- GI50 (NCI/ADR-RES): > 10 µM (inactive)
- GI50 (SNB-19): > 10 µM (inactive)
- GI50 (SF-539): > 10 µM (inactive)
- GI50 (T47D): > 10 µM (inactive)
- GI50 (NCI-H23): > 10 µM (inactive)
- GI50 (BT-549): > 10 µM (inactive)
- GI50 (EKVX): > 10 µM (inactive)
- GI50 (SW-620): > 10 µM (inactive)
- GI50 (IGROV-1): > 10 µM (inactive)
- GI50 (U-251): > 10 µM (inactive)
- GI50 (SF-268): > 10 µM (inactive)
- GI50 (ACHN): > 10 µM (inactive)
- GI50 (A498): > 10 µM (inactive)
- GI50 (MDA-N): > 10 µM (inactive)
- GI50 (HCC 2998): > 10 µM (inactive)
- GI50 (SK-OV-3): > 10 µM (inactive)
- GI50 (SN12C): > 10 µM (inactive)
- GI50 (HT-29): > 10 µM (inactive)
- GI50 (HL-60): > 10 µM (inactive)
- GI50 (OVCAR-3): > 10 µM (inactive)
- GI50 (HCT-116): > 10 µM (inactive)
- GI50 (UACC-62): > 10 µM (inactive)
- GI50 (NCI-H460): > 10 µM (inactive)
- GI50 (Malme-3M): > 10 µM (inactive)
- GI50 (HCT-15): > 10 µM
- GI50 (Hs-578T): > 10 µM (inactive)
- GI50 (SF-295): > 10 µM (inactive)
- GI50 (LOX IMVI): > 10 µM (inactive)

Compound: COc1ccc(C)cc1NC(=S)N/N=C/c1ccc(SC)cc1
- GI50 (M14): 25.5 µM (inactive)
- GI50 (KM12): 67.5 µM (inactive)
- GI50 (MCF7): > 100 µM (inactive)
- GI50 (SK-MEL-5): 21.6 µM (inactive)
- GI50 (OVCAR-8): 57.1 µM (inactive)
- GI50 (SNB-75): > 100 µM (inactive)
- GI50 (RXF 393): 58.5 µM (inactive)
- GI50 (COLO 205): 40.1 µM (inactive)
- GI50 (OVCAR-5): 25.1 µM (inactive)
- GI50 (MDA-MB-435): 38.4 µM (inactive)
- GI50 (SK-MEL-2): 55.6 µM (inactive)
- GI50 (RPMI-8226): 27.9 µM (inactive)
- GI50 (OVCAR-4): 57.8 µM (inactive)
- GI50 (PC-3): 75 µM (inactive)
- GI50 (UO-31): 84.3 µM (inactive)
- GI50 (HOP-62): 28.8 µM (inactive)
- GI50 (SK-MEL-28): 86.7 µM (inactive)
- GI50 (HOP-92): 93.5 µM (inactive)
- GI50 (786-0): 83.6 µM (inactive)
- GI50 (DU-145): 66.8 µM (inactive)
- GI50 (A549): > 100 µM (inactive)
- GI50 (MOLT-4): 45.4 µM (inactive)
- GI50 (NCI-H522): 82.2 µM (inactive)
- GI50 (K562): 35.4 µM (inactive)
- GI50 (CAKI-1): 47.6 µM (inactive)
- GI50 (CCRF-CEM): 54.8 µM (inactive)
- GI50 (NCI/ADR-RES): 60.1 µM (inactive)
- GI50 (SNB-19): > 100 µM (inactive)
- GI50 (SF-539): 27.8 µM (inactive)
- GI50 (SR): 38.5 µM (inactive)
- GI50 (T47D): 60.7 µM (inactive)
- GI50 (NCI-H23): 50.2 µM (inactive)
- GI50 (BT-549): 49.3 µM (inactive)
- GI50 (SW-620): 53.8 µM (inactive)
- GI50 (IGROV-1): 42.8 µM (inactive)
- GI50 (SF-268): > 100 µM (inactive)
- GI50 (ACHN): > 100 µM (inactive)
- GI50 (A498): > 100 µM (inactive)
- GI50 (MDA-N): 36.3 µM (inactive)
- GI50 (SK-OV-3): 19.5 µM (inactive)
- GI50 (SN12C): > 100 µM (inactive)
- GI50 (HT-29): 34.1 µM (inactive)
- GI50 (HL-60): 31.8 µM (inactive)
- GI50 (OVCAR-3): 38.9 µM (inactive)
- GI50 (HCT-116): 69.3 µM (inactive)
- GI50 (UACC-62): > 100 µM (inactive)
- GI50 (Malme-3M): 96.4 µM (inactive)
- GI50 (HCT-15): 39.6 µM
- GI50 (Hs-578T): > 100 µM (inactive)
- GI50 (SF-295): 69.5 µM (inactive)
- GI50 (LOX IMVI): 59.6 µM (inactive)

Compound: O[C@@H]1C[C@H](Cl)c2c(Cl)sc(Cl)c21
- GI50 (M14): > 100 µM (inactive)
- GI50 (KM12): > 100 µM (inactive)
- GI50 (MCF7): 13 µM (inactive)
- GI50 (SK-MEL-5): > 100 µM (inactive)
- GI50 (OVCAR-8): > 100 µM (inactive)
- GI50 (SNB-75): > 100 µM (inactive)
- GI50 (RXF 393): > 100 µM (inactive)
- GI50 (COLO 205): > 100 µM (inactive)
- GI50 (OVCAR-5): > 100 µM (inactive)
- GI50 (UACC-257): > 100 µM (inactive)
- GI50 (MDA-MB-435): > 100 µM (inactive)
- GI50 (SK-MEL-2): > 100 µM (inactive)
- GI50 (RPMI-8226): > 100 µM (inactive)
- GI50 (OVCAR-4): > 100 µM (inactive)
- GI50 (PC-3): > 100 µM (inactive)
- GI50 (UO-31): > 100 µM (inactive)
- GI50 (HOP-62): > 100 µM (inactive)
- GI50 (SK-MEL-28): > 100 µM (inactive)
- GI50 (786-0): > 100 µM (inactive)
- GI50 (DU-145): > 100 µM (inactive)
- GI50 (A549): > 100 µM (inactive)
- GI50 (MOLT-4): > 100 µM (inactive)
- GI50 (MDA-MB-231): > 100 µM (inactive)
- GI50 (NCI-H522): > 100 µM (inactive)
- GI50 (K562): > 100 µM (inactive)
- GI50 (CAKI-1): > 100 µM (inactive)
- GI50 (TK-10): > 100 µM (inactive)
- GI50 (CCRF-CEM): > 100 µM (inactive)
- GI50 (NCI/ADR-RES): > 100 µM (inactive)
- GI50 (SNB-19): > 100 µM (inactive)
- GI50 (SF-539): > 100 µM (inactive)
- GI50 (SR): > 100 µM (inactive)
- GI50 (T47D): 33.4 µM (inactive)
- GI50 (NCI-H23): > 100 µM (inactive)
- GI50 (BT-549): > 100 µM (inactive)
- GI50 (EKVX): > 100 µM (inactive)
- GI50 (SW-620): > 100 µM (inactive)
- GI50 (IGROV-1): > 100 µM (inactive)
- GI50 (U-251): > 100 µM (inactive)
- GI50 (SF-268): > 100 µM (inactive)
- GI50 (ACHN): > 100 µM (inactive)
- GI50 (MDA-N): > 100 µM (inactive)
- GI50 (HCC 2998): > 100 µM (inactive)
- GI50 (SK-OV-3): > 100 µM (inactive)
- GI50 (SN12C): > 100 µM (inactive)
- GI50 (HT-29): > 100 µM (inactive)
- GI50 (OVCAR-3): > 100 µM (inactive)
- GI50 (HCT-116): > 100 µM (inactive)
- GI50 (UACC-62): > 100 µM (inactive)
- GI50 (NCI-H460): > 100 µM (inactive)
- GI50 (Malme-3M): > 100 µM (inactive)
- GI50 (HCT-15): > 100 µM
- GI50 (Hs-578T): > 100 µM (inactive)
- GI50 (SF-295): > 100 µM (inactive)
- GI50 (LOX IMVI): > 100 µM (inactive)
